Reference: ChEMBL document CHEMBL1909046, “DrugMatrix in vitro pharmacology data”

Key:
Cytochrome P450 2C19 = Cytochrome P450 2C19 (Homo sapiens, UniProt P33261); details: bti-tn-5b1-4; also: in other assays of this panel Not Active means under 50% inhibition at 10 µM
Progesterone receptor = biological target: T1, Progesterone receptor (Bos taurus, UniProt Q690N0); experiment: DRUGMATRIX: Progesterone radioligand binding (ligand: [3H] R-5020); format: tissue-based, Uterus; details: Not Active = under 50% inhibition at 10 µM
T1 sequence (Q690N0 whole entry): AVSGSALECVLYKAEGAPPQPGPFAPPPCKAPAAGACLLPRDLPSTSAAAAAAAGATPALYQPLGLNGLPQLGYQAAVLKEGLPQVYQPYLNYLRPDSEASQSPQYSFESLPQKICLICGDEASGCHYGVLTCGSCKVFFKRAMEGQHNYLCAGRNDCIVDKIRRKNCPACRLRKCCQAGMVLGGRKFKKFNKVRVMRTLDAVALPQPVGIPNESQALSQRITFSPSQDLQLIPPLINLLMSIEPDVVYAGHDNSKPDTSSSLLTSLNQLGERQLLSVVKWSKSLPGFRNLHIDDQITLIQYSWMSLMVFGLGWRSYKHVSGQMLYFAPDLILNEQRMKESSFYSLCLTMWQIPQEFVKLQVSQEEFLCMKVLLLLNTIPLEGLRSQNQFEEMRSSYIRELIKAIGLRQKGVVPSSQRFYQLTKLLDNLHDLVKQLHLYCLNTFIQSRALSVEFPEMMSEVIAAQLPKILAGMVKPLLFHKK

[1] = DRUGMATRIX: Sigma2 radioligand binding (ligand: [3H] Ifenprodil); format: cell membranes, Rattus norvegicus, Wistar, Brain, Membrane; details: Not Active = under 50% inhibition at 10 µM
[2] = biological target: Beta-3 adrenergic receptor (Homo sapiens, UniProt P13945); experiment: DRUGMATRIX: Adrenergic beta3 radioligand binding (ligand: [125I] Cyanopindolol); format: cell membranes, HEK293, Membrane; details: Not Active = under 50% inhibition at 10 µM
Sequence of Beta-3 adrenergic receptor (P13945 whole entry): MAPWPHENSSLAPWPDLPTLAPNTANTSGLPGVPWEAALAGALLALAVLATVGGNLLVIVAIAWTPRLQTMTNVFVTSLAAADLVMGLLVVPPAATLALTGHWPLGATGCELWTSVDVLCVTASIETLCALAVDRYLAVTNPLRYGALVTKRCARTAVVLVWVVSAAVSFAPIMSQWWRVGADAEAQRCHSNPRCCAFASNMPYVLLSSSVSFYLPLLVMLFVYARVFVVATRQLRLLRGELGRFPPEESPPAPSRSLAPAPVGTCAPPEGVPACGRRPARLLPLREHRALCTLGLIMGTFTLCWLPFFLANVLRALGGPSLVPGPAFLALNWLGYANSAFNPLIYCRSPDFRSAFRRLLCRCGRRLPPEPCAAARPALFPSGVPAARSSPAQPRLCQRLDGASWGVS

[3] = biological target: Beta-1 adrenergic receptor (Homo sapiens, UniProt P08588); experiment: DRUGMATRIX: Adrenergic beta1 radioligand binding (ligand: [125I] Cyanopindolol); format: cell membranes, CHO-K1, Membrane; details: cho-k1; Not Active = under 50% inhibition at 10 µM
Sequence of Beta-1 adrenergic receptor (P08588 whole entry): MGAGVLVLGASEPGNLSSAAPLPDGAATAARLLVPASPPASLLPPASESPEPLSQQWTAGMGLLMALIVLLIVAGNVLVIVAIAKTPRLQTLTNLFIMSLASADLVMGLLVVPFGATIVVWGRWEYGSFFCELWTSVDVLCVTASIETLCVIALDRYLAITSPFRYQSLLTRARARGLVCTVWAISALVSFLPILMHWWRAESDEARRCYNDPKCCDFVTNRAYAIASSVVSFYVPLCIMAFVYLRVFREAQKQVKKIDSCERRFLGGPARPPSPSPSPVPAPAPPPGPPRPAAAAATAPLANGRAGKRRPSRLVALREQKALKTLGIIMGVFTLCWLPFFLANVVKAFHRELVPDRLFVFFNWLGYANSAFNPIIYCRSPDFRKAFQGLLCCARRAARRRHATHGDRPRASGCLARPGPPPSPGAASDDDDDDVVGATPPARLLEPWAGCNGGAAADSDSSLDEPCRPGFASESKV

Melanocortin receptor 5 = Melanocortin receptor 5 (Homo sapiens, UniProt P33032); format: cell membranes, HEK293, Membrane; also: in other assays of this panel Not Active means under 50% inhibition at 10 µM
Sequence of Melanocortin receptor 5 (P33032 whole entry): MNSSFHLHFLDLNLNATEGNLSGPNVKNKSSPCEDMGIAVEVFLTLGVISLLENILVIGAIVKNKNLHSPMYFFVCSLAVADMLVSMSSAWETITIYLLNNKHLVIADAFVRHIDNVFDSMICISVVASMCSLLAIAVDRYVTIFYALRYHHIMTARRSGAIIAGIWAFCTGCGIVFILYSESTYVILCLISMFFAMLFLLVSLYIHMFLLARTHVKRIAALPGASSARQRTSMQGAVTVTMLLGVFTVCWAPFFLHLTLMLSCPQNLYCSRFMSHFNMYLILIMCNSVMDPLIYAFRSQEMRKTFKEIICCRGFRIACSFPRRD

Sequence of Cytochrome P450 2C19 (P33261 whole entry): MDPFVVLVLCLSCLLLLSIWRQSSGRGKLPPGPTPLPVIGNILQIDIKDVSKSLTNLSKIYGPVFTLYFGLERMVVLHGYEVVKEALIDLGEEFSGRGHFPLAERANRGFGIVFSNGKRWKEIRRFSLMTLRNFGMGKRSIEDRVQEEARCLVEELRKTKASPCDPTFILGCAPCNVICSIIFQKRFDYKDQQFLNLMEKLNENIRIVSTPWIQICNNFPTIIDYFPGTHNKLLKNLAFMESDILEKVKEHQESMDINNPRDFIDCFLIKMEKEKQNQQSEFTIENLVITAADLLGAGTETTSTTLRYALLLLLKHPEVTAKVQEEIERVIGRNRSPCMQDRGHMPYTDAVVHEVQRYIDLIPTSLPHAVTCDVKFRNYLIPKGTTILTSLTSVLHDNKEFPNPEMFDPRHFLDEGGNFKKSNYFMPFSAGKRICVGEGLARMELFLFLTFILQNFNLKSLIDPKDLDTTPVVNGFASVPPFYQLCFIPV

Compound	IC50 (Cytochrome P450 2C19)	Ki (Cytochrome P450 2C19)	IC50 (Progesterone receptor)	IC50 [1]	Ki [1]	IC50 ([2]; hek293)	IC50 [3]	IC50 (Melanocortin receptor 5; hek293)	Ki (Progesterone receptor)	Ki ([2]; hek293)	Ki [3]	Ki (Melanocortin receptor 5; hek293)	IC50 ([1]; read-out: IC50)	Ki ([1]; read-out: Ki)	IC50 (Melanocortin receptor 5; read-out: IC50)	Ki (Melanocortin receptor 5; read-out: Ki)	IC50 (Progesterone receptor; read-out: IC50)	Ki (Progesterone receptor; read-out: Ki)	IC50 ([2]; read-out: IC50)	Ki ([2]; read-out: Ki)
CO[C@H]1O[C@@H]2O[C@@]3(C)CC[C@H]4[C@H](C)CC[C@@H]([C@H]1C)[C@@]24OO3	Not Active	Not Active	Not Active	Not Active	Not Active	Not Active	Not Active	Not Active												
O=c1[nH]c2ccccc2c2ccccc12	Not Active	Not Active	Not Active	Not Active	Not Active	Not Active	Not Active	Not Active												
COc1ccc(C[C@H](N)C(=O)N[C@H]2[C@@H](O)[C@H](n3cnc4c(N(C)C)ncnc43)O[C@@H]2CO)cc1 [PUROMYCIN]	Not Active	Not Active	Not Active	Not Active	Not Active	Not Active	Not Active	Not Active												
CHROMIC CHLORIDE	Not Active	Not Active	Not Active	Not Active	Not Active	Not Active	Not Active	Not Active	Not Active	Not Active	Not Active	Not Active								
C[C@@H]1[C@H](O)[C@@H](C)/C=C/C=C/C=C/C=C/C=C/C=C/C=C/[C@H](O[C@@H]2O[C@H](C)[C@@H](O)[C@H](N)[C@@H]2O)C[C@@H]2O[C@](O)(C[C@@H](O)C[C@@H](O)[C@H](O)CC[C@@H](O)C[C@@H](O)CC(=O)O[C@H]1C)C[C@H](O)[C@H]2C(=O)O [AMPHOTERICIN B]	Not Active	Not Active	Not Active	Not Active	Not Active	Not Active	Not Active	Not Active												
Cc1c(N)nc([C@H](CC(N)=O)NC[C@H](N)C(N)=O)nc1C(=O)N[C@H](C(=O)N[C@H](C)[C@@H](O)[C@H](C)C(=O)N[C@H](C(=O)NCCc1nc(-c2nc(C(=O)NCCC[S+](C)C)cs2)cs1)[C@@H](C)O)[C@@H](O[C@@H]1O[C@@H](CO)[C@@H](O)[C@H](O)[C@@H]1O[C@H]1O[C@H](CO)[C@@H](O)[C@H](OC(N)=O)[C@@H]1O)c1c[nH]cn1.[Br-] [BLEOMYCIN A2]	Not Active	Not Active	Not Active	Not Active	Not Active	Not Active		Not Active												
O=C(O)CNCP(=O)(O)O [GLYPHOSATE]			Not Active	Not Active	Not Active	Not Active	Not Active	Not Active												
Nc1nc(F)nc2c1ncn2[C@@H]1O[C@H](CO)[C@@H](O)[C@@H]1O [FLUDARABINE]	Not Active	Not Active	Not Active	Not Active	Not Active	Not Active	Not Active	Not Active												
NCC(CC(=O)O)c1ccc(Cl)cc1 (stereo not drawn) [BACLOFEN]	Not Active	Not Active	Not Active	Not Active	Not Active	Not Active	Not Active	Not Active												
O=C(Nc1ccc(Cl)c(Cl)c1)c1cc(Cl)cc(Cl)c1O [3,3',4',5-TETRACHLOROSALICYLANILIDE]	Not Active	Not Active	Not Active	Not Active	Not Active	Not Active	Not Active	Not Active												
Oc1ccccc1 [PHENOL]	Not Active	Not Active		Not Active	Not Active	Not Active	Not Active	Not Active												
CC(C)NCC(O)COc1ccc(CC(N)=O)cc1 (stereo not drawn) [ATENOLOL]			Not Active	Not Active	Not Active	Not Active		Not Active												
CNC[C@H](O)c1ccc(O)c(O)c1 [EPINEPHRINE]	Not Active	Not Active	Not Active	Not Active	Not Active	Not Active	Not Active	Not Active												
CN(Cc1cc(Br)cc(Br)c1N)C1CCCCC1 [BROMHEXINE]	Not Active	Not Active	Not Active			Not Active	Not Active	Not Active					0.059 µM	0.036 µM						
CC(C)Cc1ccc([C@H](C)C(=O)O)cc1 [DEXIBUPROFEN]	Not Active	Not Active	Not Active	Not Active	Not Active	Not Active	Not Active	Not Active												
CC(C)Cn1cnc2c(N)nc3ccccc3c21 [IMIQUIMOD]	Not Active	Not Active	Not Active	Not Active	Not Active	Not Active	Not Active	Not Active												
CC(C)(C#N)c1cc(Cn2cncn2)cc(C(C)(C)C#N)c1 [ANASTROZOLE]	Not Active	Not Active	Not Active	Not Active	Not Active	Not Active	Not Active	Not Active												
POVIDONE	Not Active	Not Active	Not Active	Not Active	Not Active	Not Active	Not Active	Not Active	Not Active	Not Active	Not Active	Not Active								
COc1ccccc1OCCNCC(O)COc1cccc2[nH]c3ccccc3c12 (stereo not drawn) [CARVEDILOL]	Not Active	Not Active	Not Active	Not Active	Not Active			Not Active												
Nc1ccc(Cc2ccc(N)cc2)cc1	Not Active	Not Active	Not Active	Not Active	Not Active	Not Active	Not Active	Not Active												
CARBOXYMETHYLCELLULOSE	Not Active	Not Active	Not Active	Not Active	Not Active	Not Active	Not Active	Not Active	Not Active	Not Active	Not Active	Not Active								
c1ccc2sc(SSc3nc4ccccc4s3)nc2c1 [BENZOTHIAZYL DISULFIDE]	Not Active	Not Active	Not Active	Not Active	Not Active	Not Active	Not Active								3.9 µM	3.7 µM				
O=C1c2ccccc2C(=O)C1c1ccccc1 [PHENINDIONE]	Not Active	Not Active	Not Active	Not Active	Not Active	Not Active	Not Active	Not Active												
Nc1ccc(C(=O)O)c(O)c1 [AMINOSALICYLIC ACID]	Not Active	Not Active	Not Active	Not Active	Not Active	Not Active	Not Active	Not Active												
NS(=O)(=O)c1cc(C(=O)O)c(NCc2ccco2)cc1Cl [FUROSEMIDE]			Not Active	Not Active	Not Active	Not Active	Not Active	Not Active												
CCN(CCO)CCCC(C)Nc1ccnc2cc(Cl)ccc12 (stereo not drawn) [HYDROXYCHLOROQUINE]			Not Active	Not Active	Not Active	Not Active		Not Active												
COc1cc([C@@H]2c3cc4c(cc3[C@H](O)[C@H]3COC(=O)[C@H]23)OCO4)cc(OC)c1OC [PODOFILOX]			Not Active	Not Active	Not Active	Not Active	Not Active	Not Active												
C[C@H]1C[C@H]2[C@@H]3CCC4=CC(=O)C=C[C@]4(C)[C@@]3(F)[C@@H](O)C[C@]2(C)[C@@]1(O)C(=O)CO [BETAMETHASONE]			Not Active	Not Active	Not Active	Not Active	Not Active	Not Active												
CC1(COc2ccc(CC3SC(=O)NC3=O)cc2)CCCCC1 (stereo not drawn) [CIGLITAZONE]				Not Active	Not Active		Not Active								28.6 µM	26.8 µM	29.1 µM	3.8 µM	17.9 µM	13.4 µM
